Reference: patent US20220144823A1, “PYRAZOLOPYRIDINE DERIVATIVES AS INHIBITORS OF PASK” (Galapagos NV, priority 2019, published 2022)

Test system: diabetic non human primates (NHPs) under a high-calorie diet (HCD)
Assay: Diabetic monkey model;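 further: male obese diabetic cynomolgus monkeys fed a high-fat, high-fructose diet, randomized into 4 groups, dosed with test compound for 8 weeks, then a 4-week washout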
Details: for Oral glucose tolerance test (glucose AUC): fasted animals; for Hepatic echogenicity (H/R ratio): Hepatic (right lobe)/Renal cortex (right kidney) ratio, ultrasound
[1] = week 1, treatment, metformin 25 mg/kg b.i.d., Cpd 18 30 mg/kg q.d., p.o.
[2] = week 2, treatment, metformin 25 mg/kg b.i.d., Cpd 18 30 mg/kg q.d., p.o.
[3] = week 3, treatment, metformin 25 mg/kg b.i.d., Cpd 18 30 mg/kg q.d., p.o.
[4] = week 4, treatment, metformin 25 mg/kg b.i.d., Cpd 18 30 mg/kg q.d., p.o.
[5] = week 9, washout without treatment
[6] = week 10, washout without treatment
[7] = week 11, washout without treatment
[8] = week 12, washout without treatment

Description: The aim of this assay is to determine the effect of a test compound on lipid metabolism and glucose handling in diabetic non human primates (NHPs) under a high-calorie diet (HCD) consisting of high-fat and high-fructose.
Male obese diabetic cynomolgus monkeys were selected based on their body weights, glucose, insulin levels, and blood lipid parameters. The inclusion criteria were the following: age ≤22 years; fasted plasma glucose between 120 and 300 mg/dL; triglycerides >125 mg/dL, and insulin >75 mIU/mL.
The animals are maintained at 20-23° C. and 40-70% humidity on a 12 h light/dark cycle (7 AM-7 PM). Water is provided ad libitum and the animals are fed twice daily with the high-calorie diet (HCD) enriched with seasonal fruits or vegetables.
After the baseline period, animals were randomized into 4 groups according to body weight, as well as their blood glucose and lipid parameters.
The following parameters were measured once per week during the 8 weeks of treatment and also during the 4 weeks of washout: • body weight • food consumption • blood chemistry (fasted blood glucose, plasma triglycerides, plasma total cholesterol, low density lipoproteins (LDL), and high density lipoproteins (HDL))
Oral glucose tolerance was measured in fasted animals before treatment initiation (baseline), at the end of the treatment period (week 8), and after 4 weeks of washout (week 12).

Question: Which results are given for `Cc1nn(C(C)C)c(C)c1-c1cnn2ccc(-c3cc(C(=O)O)co3)cc12` [Cpd 18, 5-[3-(1-isopropyl-3,5-dimethyl-pyrazol-4-yl)pyrazolo[1,5-a]pyridin-5-yl]furan-3-carboxylic acid]?
Answer: HDL change (% change from baseline) (Group 2, week 1, treatment): 14.1%; LDL change (% change from baseline) (Group 2, week 1, treatment): 52.8%; Total cholesterol change (% change from baseline) (Group 2, week 1, treatment): 48.2 % change from baseline; Triglyceride change (% change from baseline) (Group 2, week 1, treatment): −33.3 % change from baseline; HDL change (% change from baseline) (Group 2, week 2, treatment): 8.4%; LDL change (% change from baseline) (Group 2, week 2, treatment): 38.3%; Total cholesterol change (% change from baseline) (Group 2, week 2, treatment): 33.8 % change from baseline; Triglyceride change (% change from baseline) (Group 2, week 2, treatment): −31.2 % change from baseline; HDL change (% change from baseline) (Group 2, week 3, treatment): 6.2%; LDL change (% change from baseline) (Group 2, week 3, treatment): 16.6%; Total cholesterol change (% change from baseline) (Group 2, week 3, treatment): 18.6 % change from baseline; Triglyceride change (% change from baseline) (Group 2, week 3, treatment): −36.7 % change from baseline; HDL change (% change from baseline) (Group 2, week 4, treatment): −4.3%; LDL change (% change from baseline) (Group 2, week 4, treatment): 31.0%; Total cholesterol change (% change from baseline) (Group 2, week 4, treatment): 28.0 % change from baseline; Triglyceride change (% change from baseline) (Group 2, week 4, treatment): −44.2 % change from baseline; HDL change (% change from baseline) (Group 2, week 5, treatment): 4.2%; LDL change (% change from baseline) (Group 2, week 5, treatment): 5.1%; Total cholesterol change (% change from baseline) (Group 2, week 5, treatment): 3.2 % change from baseline; Triglyceride change (% change from baseline) (Group 2, week 5, treatment): −62.6 % change from baseline; HDL change (% change from baseline) (Group 2, week 6, treatment): 11.7%; LDL change (% change from baseline) (Group 2, week 6, treatment): −10.5%; Total cholesterol change (% change from baseline) (Group 2, week 6, treatment): −6.7 % change from baseline; Triglyceride change (% change from baseline) (Group 2, week 6, treatment): −59.6 % change from baseline; HDL change (% change from baseline) (Group 2, week 7, treatment): 13.0%; LDL change (% change from baseline) (Group 2, week 7, treatment): −17.2%; Total cholesterol change (% change from baseline) (Group 2, week 7, treatment): −12.0 % change from baseline; Triglyceride change (% change from baseline) (Group 2, week 7, treatment): −55.9 % change from baseline; HDL change (% change from baseline) (Group 2, week 8, treatment): 12.4%; LDL change (% change from baseline) (Group 2, week 8, treatment): −10.5%; Total cholesterol change (% change from baseline) (Group 2, week 8, treatment): −5.1 % change from baseline; Triglyceride change (% change from baseline) (Group 2, week 8, treatment): −39.3 % change from baseline; HDL change (% change from baseline) (Group 2, week 9, washout): 13.5%; LDL change (% change from baseline) (Group 2, week 9, washout): −1.6%; Total cholesterol change (% change from baseline) (Group 2, week 9, washout): 5.8 % change from baseline; Triglyceride change (% change from baseline) (Group 2, week 9, washout): −33.4 % change from baseline; HDL change (% change from baseline) (Group 2, week 10, washout): 22.7%; LDL change (% change from baseline) (Group 2, week 10, washout): 38.6%; Total cholesterol change (% change from baseline) (Group 2, week 10, washout): 42.4 % change from baseline; Triglyceride change (% change from baseline) (Group 2, week 10, washout): 9.8 % change from baseline; HDL change (% change from baseline) (Group 2, week 11, washout): 21.2%; LDL change (% change from baseline) (Group 2, week 11, washout): 81.5%; Total cholesterol change (% change from baseline) (Group 2, week 11, washout): 83.8 % change from baseline; Triglyceride change (% change from baseline) (Group 2, week 11, washout): 49.7 % change from baseline; HDL change (% change from baseline) (Group 2, week 12, washout): 24.9%; LDL change (% change from baseline) (Group 2, week 12, washout): 118.6%; Total cholesterol change (% change from baseline) (Group 2, week 12, washout): 115.8 % change from baseline; Triglyceride change (% change from baseline) (Group 2, week 12, washout): 32.2 % change from baseline; HDL change (% change from baseline) (Group 3, week 1, treatment): 18.6%; LDL change (% change from baseline) (Group 3, week 1, treatment): 60.5%; Total cholesterol change (% change from baseline) (Group 3, week 1, treatment): 46.1 % change from baseline; Triglyceride change (% change from baseline) (Group 3, week 1, treatment): −20.2 % change from baseline; HDL change (% change from baseline) (Group 3, week 2, treatment): 3.7%; LDL change (% change from baseline) (Group 3, week 2, treatment): 58.3%; Total cholesterol change (% change from baseline) (Group 3, week 2, treatment): 41.5 % change from baseline; Triglyceride change (% change from baseline) (Group 3, week 2, treatment): −56.1 % change from baseline; HDL change (% change from baseline) (Group 3, week 3, treatment): 7.7%; LDL change (% change from baseline) (Group 3, week 3, treatment): 35.1%; Total cholesterol change (% change from baseline) (Group 3, week 3, treatment): 22.3 % change from baseline; Triglyceride change (% change from baseline) (Group 3, week 3, treatment): −41.6 % change from baseline; HDL change (% change from baseline) (Group 3, week 4, treatment): −12.0%; LDL change (% change from baseline) (Group 3, week 4, treatment): −28.7%; Total cholesterol change (% change from baseline) (Group 3, week 4, treatment): −22.3 % change from baseline; Triglyceride change (% change from baseline) (Group 3, week 4, treatment): −44.5 % change from baseline; HDL change (% change from baseline) (Group 3, week 5, treatment): 1.0%; LDL change (% change from baseline) (Group 3, week 5, treatment): −27.5%; Total cholesterol change (% change from baseline) (Group 3, week 5, treatment): −21.0 % change from baseline; Triglyceride change (% change from baseline) (Group 3, week 5, treatment): −44.4 % change from baseline; HDL change (% change from baseline) (Group 3, week 6, treatment): 9.5%; LDL change (% change from baseline) (Group 3, week 6, treatment): −33.2%; Total cholesterol change (% change from baseline) (Group 3, week 6, treatment): −26.5 % change from baseline; Triglyceride change (% change from baseline) (Group 3, week 6, treatment): −46.2 % change from baseline; HDL change (% change from baseline) (Group 3, week 7, treatment): 8.3%; LDL change (% change from baseline) (Group 3, week 7, treatment): −39.4%; Total cholesterol change (% change from baseline) (Group 3, week 7, treatment): −30.5 % change from baseline; Triglyceride change (% change from baseline) (Group 3, week 7, treatment): −35.0 % change from baseline; HDL change (% change from baseline) (Group 3, week 8, treatment): −0.9%; LDL change (% change from baseline) (Group 3, week 8, treatment): −27.9%; Total cholesterol change (% change from baseline) (Group 3, week 8, treatment): −20.4 % change from baseline; Triglyceride change (% change from baseline) (Group 3, week 8, treatment): −37.4 % change from baseline; HDL change (% change from baseline) (Group 3, week 9, washout): 1.5%; LDL change (% change from baseline) (Group 3, week 9, washout): −41.8%; Total cholesterol change (% change from baseline) (Group 3, week 9, washout): −31.5 % change from baseline; Triglyceride change (% change from baseline) (Group 3, week 9, washout): −49.3 % change from baseline; HDL change (% change from baseline) (Group 3, week 10, washout): 8.0%; LDL change (% change from baseline) (Group 3, week 10, washout): −13.5%; Total cholesterol change (% change from baseline) (Group 3, week 10, washout): −8.2 % change from baseline; Triglyceride change (% change from baseline) (Group 3, week 10, washout): −45.9 % change from baseline; HDL change (% change from baseline) (Group 3, week 11, washout): 21.9%; LDL change (% change from baseline) (Group 3, week 11, washout): 10.2%; Total cholesterol change (% change from baseline) (Group 3, week 11, washout): 15.5 % change from baseline; Triglyceride change (% change from baseline) (Group 3, week 11, washout): −19.9 % change from baseline; HDL change (% change from baseline) (Group 3, week 12, washout): 23.9%; LDL change (% change from baseline) (Group 3, week 12, washout): 46.2%; Total cholesterol change (% change from baseline) (Group 3, week 12, washout): 48.7 % change from baseline; Triglyceride change (% change from baseline) (Group 3, week 12, washout): 18.8 % change from baseline; HDL change (% change from baseline) (Group 4, week 1, treatment): 2.1%; LDL change (% change from baseline) (Group 4, week 1, treatment): 67.1%; Total cholesterol change (% change from baseline) (Group 4, week 1, treatment): 50.9 % change from baseline; Triglyceride change (% change from baseline) (Group 4, week 1, treatment): −31.7 % change from baseline; HDL change (% change from baseline) (Group 4, week 2, treatment): −13.1%; LDL change (% change from baseline) (Group 4, week 2, treatment): 46.7%; Total cholesterol change (% change from baseline) (Group 4, week 2, treatment): 30.3 % change from baseline; Triglyceride change (% change from baseline) (Group 4, week 2, treatment): −30.0 % change from baseline; HDL change (% change from baseline) (Group 4, week 3, treatment): −14.9%; LDL change (% change from baseline) (Group 4, week 3, treatment): 33.6%; Total cholesterol change (% change from baseline) (Group 4, week 3, treatment): 20.9 % change from baseline; Triglyceride change (% change from baseline) (Group 4, week 3, treatment): −28.2 % change from baseline; HDL change (% change from baseline) (Group 4, week 4, treatment): −16.0%; LDL change (% change from baseline) (Group 4, week 4, treatment): −21.9%; Total cholesterol change (% change from baseline) (Group 4, week 4, treatment): −22.6 % change from baseline; Triglyceride change (% change from baseline) (Group 4, week 4, treatment): −48.3 % change from baseline; HDL change (% change from baseline) (Group 4, week 5, treatment): −6.9%; LDL change (% change from baseline) (Group 4, week 5, treatment): 0.0%; Total cholesterol change (% change from baseline) (Group 4, week 5, treatment): −7.8 % change from baseline; Triglyceride change (% change from baseline) (Group 4, week 5, treatment): −52.3 % change from baseline; HDL change (% change from baseline) (Group 4, week 6, treatment): 0.3%; LDL change (% change from baseline) (Group 4, week 6, treatment): 2.1%; Total cholesterol change (% change from baseline) (Group 4, week 6, treatment): −2.6 % change from baseline; Triglyceride change (% change from baseline) (Group 4, week 6, treatment): −50.8 % change from baseline; HDL change (% change from baseline) (Group 4, week 7, treatment): 0.9%; LDL change (% change from baseline) (Group 4, week 7, treatment): −38.5%; Total cholesterol change (% change from baseline) (Group 4, week 7, treatment): −32.9 % change from baseline; Triglyceride change (% change from baseline) (Group 4, week 7, treatment): −63.2 % change from baseline; HDL change (% change from baseline) (Group 4, week 8, treatment): 8.7%; LDL change (% change from baseline) (Group 4, week 8, treatment): −32.5%; Total cholesterol change (% change from baseline) (Group 4, week 8, treatment): −26.1 % change from baseline; Triglyceride change (% change from baseline) (Group 4, week 8, treatment): −56.1 % change from baseline; HDL change (% change from baseline) (Group 4, week 9, washout): 18.9%; LDL change (% change from baseline) (Group 4, week 9, washout): −20.0%; Total cholesterol change (% change from baseline) (Group 4, week 9, washout): −15.5 % change from baseline; Triglyceride change (% change from baseline) (Group 4, week 9, washout): −60.2 % change from baseline; HDL change (% change from baseline) (Group 4, week 10, washout): 6.0%; LDL change (% change from baseline) (Group 4, week 10, washout): 29.3%; Total cholesterol change (% change from baseline) (Group 4, week 10, washout): 10.9 % change from baseline; Triglyceride change (% change from baseline) (Group 4, week 10, washout): −58.1 % change from baseline; HDL change (% change from baseline) (Group 4, week 11, washout): 11.0%; LDL change (% change from baseline) (Group 4, week 11, washout): 45.1%; Total cholesterol change (% change from baseline) (Group 4, week 11, washout): 28.5 % change from baseline; Triglyceride change (% change from baseline) (Group 4, week 11, washout): −41.4 % change from baseline; HDL change (% change from baseline) (Group 4, week 12, washout): 12.0%; LDL change (% change from baseline) (Group 4, week 12, washout): 87.5%; Total cholesterol change (% change from baseline) (Group 4, week 12, washout): 58.3 % change from baseline; Triglyceride change (% change from baseline) (Group 4, week 12, washout): −65.4 % change from baseline; Oral glucose tolerance test (glucose AUC) (week 0, baseline (before treatment initiation)): 2371 mmol·min/L; Bodyweight change (% change from baseline) [1]: 0.4%; HbA1c change (% change from baseline) [1]: −6.3%; Bodyweight change (% change from baseline) [2]: −1.9%; HbA1c change (% change from baseline) [2]: −9.4%; Bodyweight change (% change from baseline) [3]: −3.8%; HbA1c change (% change from baseline) [3]: −17.2%; Bodyweight change (% change from baseline) [4]: −5.6%; HbA1c change (% change from baseline) [4]: −24.1%; Oral glucose tolerance test (glucose AUC) (week 8, end of treatment period): 2307 mmol·min/L; Bodyweight change (% change from baseline) [5]: −13.6%; HbA1c change (% change from baseline) [5]: −30.7%; Hepatic echogenicity (H/R ratio) (week 9, washout): 1.03; Bodyweight change (% change from baseline) [6]: −14.5%; HbA1c change (% change from baseline) [6]: −25.6%; Bodyweight change (% change from baseline) [7]: −14.3%; HbA1c change (% change from baseline) [7]: −21.3%; Oral glucose tolerance test (glucose AUC) (week 12, after 4 weeks of washout): 2291 mmol·min/L; Bodyweight change (% change from baseline) [8]: −14.8%; HbA1c change (% change from baseline) [8]: −27.9%; Hepatic echogenicity (H/R ratio) (week −3, baseline): 1.13
